Experiments:
Assay in all cases: broad spectrum greenhouse test, postemergence application
Assay type in all cases: in vivo
Details in all cases: rated about 10-13 days after application, scale 1-5
Foxtail = system: Foxtail; design: key: 1 = normal plants; 5 = dead plants or no emergence
Description: (§1) A broad spectrum greenhouse test was run to show the activity of the acyloxadiazoles of formula III.
(§2) Square plastic pots were filled with a sterilized sandy loam soil and were planted to seeds of the various crops and weeds. Each pot was indi- viduall^y fertilized.
(§3) Test compounds of formula III were applied postemergence to some pots and preemergence to others. Postemergence applications of the compounds were sprayed over the emerged plants about 12 days after the seeds were planted. Preemergence applications were sprayed on the soil the day after the seeds were planted.
(§4) Each test compound was dissolved in 1:1 acetone:ethanol at the rate of 2 g. per 100 ml. The solution also contained about 2 g. per 100 ml. of an anionic-nonionic surfactant blend. One ml. of the solution was diluted with deionized water to obtain the dilution desired. The.appropriate amount of the solution was applied to each pot.
(§5) After the compounds were applied, the pots were moved to the greenhouse, watered as necessary, and observed and rated about 10-13 days after application of the compounds. Untreated control plants were used as standards in every test.

Tomato = system: Tomato; design: key: 1 = normal plants; 5 = dead plants or no emergence
Description: as §1, §2, §3, §4, §5

Zinnia = system: Zinnia; design: key: 1 = normal plants; 5 = dead plants or no emergence
Description: as §1, §2, §3, §4, §5

Morningglory = system: Morningglory; design: key: 1 = normal plants; 5 = dead plants or no emergence
Description: as §1, §2, §3, §4, §5

Pigweed = system: Pigweed; design: key: 1 = normal plants; 5 = dead plants or no emergence
Description: as §1, §2, §3, §4, §5

Large Crabgrass = system: Large Crabgrass; design: key: 1 = normal plants; 5 = dead plants or no emergence
Description: as §1, §2, §3, §4, §5

Velvetleaf = system: Velvetleaf; design: key: 1 = normal plants; 5 = dead plants or no emergence
Description: as §1, §2, §3, §4, §5

Mustard = system: Mustard; design: key: 1 = normal plants; 5 = dead plants or no emergence
Description: as §1, §2, §3, §4, §5

Barnyard Grass = system: Barnyard Grass
Description: as §1, §2, §3, §4, §5

Wild Oat = system: Wild Oat
Description: as §1, §2, §3, §4, §5

CN(C)c1nc(CC(=O)C(C)(C)C)no1 [5-dimethylamino-3-(2,2-dimethylpropionyl-methyl)-1,2,4-oxadiazole]
Postemergence rating, Foxtail (Foxtail; Rate of Appln. 1 lbs./acre): 4
Postemergence rating, Foxtail (Foxtail; Rate of Appln. 2 lbs./acre): 5
Postemergence rating, Foxtail (Foxtail; Rate of Appln. 4 lbs./acre): 5
Postemergence rating, Tomato (Tomato; Rate of Appln. 1 lbs./acre): 3
Postemergence rating, Tomato (Tomato; Rate of Appln. 2 lbs./acre): 5
Postemergence rating, Tomato (Tomato; Rate of Appln. 4 lbs./acre): 5
Postemergence rating, Zinnia (Zinnia; Rate of Appln. 1 lbs./acre): 5
Postemergence rating, Zinnia (Zinnia; Rate of Appln. 2 lbs./acre): 5
Postemergence rating, Zinnia (Zinnia; Rate of Appln. 4 lbs./acre): 5
Postemergence rating, Morningglory (Morningglory; Rate of Appln. 1 lbs./acre): 2
Postemergence rating, Morningglory (Morningglory; Rate of Appln. 2 lbs./acre): 5
Postemergence rating, Morningglory (Morningglory; Rate of Appln. 4 lbs./acre): 4
Postemergence rating, Pigweed (Pigweed; Rate of Appln. 1 lbs./acre): 5
Postemergence rating, Pigweed (Pigweed; Rate of Appln. 2 lbs./acre): 5
Postemergence rating, Pigweed (Pigweed; Rate of Appln. 4 lbs./acre): 5
Postemergence rating, Large Crabgrass (Large Crabgrass; Rate of Appln. 1 lbs./acre): 5
Postemergence rating, Large Crabgrass (Large Crabgrass; Rate of Appln. 2 lbs./acre): 5
Postemergence rating, Large Crabgrass (Large Crabgrass; Rate of Appln. 4 lbs./acre): 5
Postemergence rating, Velvetleaf (Velvetleaf; Rate of Appln. 1 lbs./acre): 5
Postemergence rating, Velvetleaf (Velvetleaf; Rate of Appln. 2 lbs./acre): 5
Postemergence rating, Velvetleaf (Velvetleaf; Rate of Appln. 4 lbs./acre): 5
Postemergence rating, Mustard (Mustard; Rate of Appln. 1 lbs./acre): 5
Postemergence rating, Mustard (Mustard; Rate of Appln. 2 lbs./acre): 4
Postemergence rating, Mustard (Mustard; Rate of Appln. 4 lbs./acre): 5
Postemergence rating, Barnyard Grass (Barnyard Grass; Rate of Appln. 1 lbs./acre): 4
Postemergence rating, Barnyard Grass (Barnyard Grass; Rate of Appln. 2 lbs./acre): 4
Postemergence rating, Barnyard Grass (Barnyard Grass; Rate of Appln. 4 lbs./acre): 4
Postemergence rating, Wild Oat (Wild Oat; Rate of Appln. 1 lbs./acre): 2
Postemergence rating, Wild Oat (Wild Oat; Rate of Appln. 2 lbs./acre): 3
Postemergence rating, Wild Oat (Wild Oat; Rate of Appln. 4 lbs./acre): 4

Reference: patent EP0061882A1, “Process for preparing isoxazol-3-ylcarboxamides” (ELI LILLY AND COMPANY, priority 1981, dated 1982)
